Measured values: publication PMC11830572, “5‐hydroxymethylcytosine features of portal venous blood predict metachronous liver metastases of colorectal cancer and reveal phosphodiesterase 4 as a therapeutic target” (Clinical and Translational Medicine, 2025)
“Also recorded” adds a separate entry of the source. Where two headings read alike, the source gives them in different places. Blank lines part the entries; values can stand above or below the compound they belong to.

Assays:
[1] = test system: HIF-1α, CCN2, p-AKT and p-ERK in MC38 cells; test: Western blot / immunofluorescence / mRNA of HIF-1α, CCN2, p-AKT, p-ERK in MC38 cells; assay type: cell-based, murine; conditions: for mRNA and protein levels of CCN2: HIF-1α inhibitor treatment
Experimental: Western blot was performed using the following antibodies: anti‐phospho‐ERK (CST, #4370), anti‐ERK (CST, #4695), anti‐phospho‐AKT (CST, #4060), anti‐AKT (CST, #9272), anti‐beta‐tubulin (CST, #86298), anti‐PDE4D (Abcam, ab171750) and anti‐CCN2 (Abcam, ab6992). […] The blots were blocked with 5% non‐fat milk and incubated overnight at 4°C with the primary antibody. Afterward, the blots were incubated for 1 h with the secondary antibody and subsequent imaging was carried out by BIO‐RAD Chemidoc MP imaging system. Relative protein levels were corrected for beta‐tubulin or beta‐actin.

MC38 cells [2] = test: Transwell migration assay, MC38; assay type: cell-based, murine
Experimental: To access cell migration, 1.0 × 10^5 cells were seeded into the 8‐µm‐pore upper chambers in serum‐free RPMI1640 and incubated in RPMI1640 with 10% FBS of the lower chamber of 12‐well plates (Corning Star). After normal culture for 24 h, cells were permeabilised with 100% methanol and then stained with .1% crystal violet.

PDE4 = PDE4 (Homo sapiens, UniProt Q08499); test: In vitro enzymatic activity assay: inhibitory activities of 2-arylbenzofurans towards PDE4 (3H-cAMP substrate); assay type: biochemical; conditions: for inhibition at 0.1 µM: read-out: PDE4 inhibition 100 nM
Experimental: Protocols for the expression and enzyme assay of PDE isoforms were similar to our previous works.[98], [99], [100] Briefly, the recombinant plasmid was transformed into Escherichia coli competent cells BL21 (CodonPlus) and cultured in LB medium at 37°C until the optical density at 600 nm (A600) reached .6–.8. Induction of protein expression was achieved by adding .1 mM isopropyl β‐D‐thiogalactopyranoside (IPTG), followed by further incubation at 15°C for 24 h. The recombinant proteins were then purified using a Ni‐NTA column (Qiagen), a Q column (GE Healthcare), and a Superdex 100 column (GE Healthcare), and Superdex 100 column (GE Healthcare). The enzymatic activities of PDEs were measured by using ^3H‐cAMP or ^3H‐cGMP (GE Healthcare) as substrates. The assay buffer contains 20 mM Tris‐HCl (pH 7.5), 10 mM MgCl2 or 4.0 mM MnCl2, 1.0 mM dithiothreitol, and 10–30 nM ^3H‐cAMP or ^3H‐cGMP (20 000–30 000 cpm/assay). The reaction was conducted at room temperature for 15 min and then terminated by adding .2 M ZnSO4. The reaction products, 3H‐AMP or 3H‐GMP, were precipitated with .2 N Ba(OH)2, while unreacted 3H‐cAMP or 3H‐cGMP remained in the supernatant. […] For the measurement of IC50, eight concentrations at least were used and IC50 values were calculated by the nonlinear regression.

[3] = Emetic assay on beagle dogs; assay type: in vivo
Experimental: All animal care and experimental protocols were conducted in accordance with the Guide for the Care and Use of Laboratory Animals (National Institutes of Health Publication, revised 1996, no. 86‐23, Bethesda, MD) and were approved by the Institutional Animal Research Ethics Committee of Sun Yat‐Sen University. (IACUC numbers: […]‐2021‐000130). […] Animals are watched continuously for 180 min for the behaviour of retching, excessive salivation, and vomiting.

MC38 cells [4] = test: Cell viability assay (CCK8); assay type: cell-based, murine
Experimental: A total of 2000–5000 cells were seeded in 96‐well plates for an overnight culture. The medium was then replaced with fresh medium supplemented with varying concentrations of drugs. […]

PDE1B (10-487) = PDE1B (10-487) (Homo sapiens, UniProt Q01064); test: biochemical
Experimental: (§2) Briefly, the recombinant plasmid was transformed into Escherichia coli competent cells BL21 (CodonPlus) and cultured in LB medium at 37°C until the optical density at 600 nm (A600) reached .6–.8. Induction of protein expression was achieved by adding .1 mM isopropyl β‐D‐thiogalactopyranoside (IPTG), followed by further incubation at 15°C for 24 h. The recombinant proteins were then purified using a Ni‐NTA column (Qiagen), a Q column (GE Healthcare), and a Superdex 100 column (GE Healthcare), and Superdex 100 column (GE Healthcare). The enzymatic activities of PDEs were measured by using ^3H‐cAMP or ^3H‐cGMP (GE Healthcare) as substrates. The assay buffer contains 20 mM Tris‐HCl (pH 7.5), 10 mM MgCl2 or 4.0 mM MnCl2, 1.0 mM dithiothreitol, and 10–30 nM ^3H‐cAMP or ^3H‐cGMP (20 000–30 000 cpm/assay). The reaction was conducted at room temperature for 15 min and then terminated by adding .2 M ZnSO4. The reaction products, 3H‐AMP or 3H‐GMP, were precipitated with .2 N Ba(OH)2, while unreacted 3H‐cAMP or 3H‐cGMP remained in the supernatant. The radioactivity of the supernatant was measured in 2.5 mL of Ultima Gold liquid scintillation cocktail (Fisher Scientific) using a PerkinElmer 2910 liquid scintillation counter. For the measurement of IC50, eight concentrations at least were used and IC50 values were calculated by the nonlinear regression.

PDE7A1 (130-482) = PDE7A1 (130-482) (Homo sapiens, UniProt Q13946); test: In vitro enzymatic activity assay, PDE selectivity panel: PDE7A1; assay type: biochemical
Experimental: as §2

PDE3A (679-1087) = PDE3A (679-1087) (Homo sapiens, UniProt Q14432); test: biochemical
Experimental: as §2

MC38 liver metastases = test: Liver metastasis model, intrasplenic injection of MC38-Luc cells; assay type: in vivo, mice; conditions: for bioluminescence of mice in the liver: day 18
Experimental: (§1) A murine colon cancer cell line (MC38) stably transfected with the firefly luciferase (Luc) gene (Addgene plasmid #17477) was generated. To establish a model of liver metastases mice were anaesthetised with ketamine. Then the spleens were exposed to allow direct intrasplenic injections of 5 × 10^5 Luc‐labelled MC38 (MC38‐Luci) cells in 50 µL 1 mM EDTA in PBS. Mice were sacrificed 18 days after injection of the tumour cells, then spleen and liver were analysed immediately. For ex vivo imaging, female mice were administered by intraperitoneal injection with d‐luciferin (150 mg/kg; Perkin Elmer). Ten minutes later, mice were sacrificed, the livers were collected and […] the ex vivo IVIS Lumina III system (Perkin Elmer). Collected images were analysed using Living Image 4.3.1 software (Perkin Elmer): ROIs were drawn around each liver and radiant efficiency calculated.

[5] = 2-week repeated administration in rats: overall long-term safety
[6] = Safety in liver metastasis model mice (body weight curve, H&E of heart, lung, kidney); assay type: in vivo
Experimental: as §1

PDE5A1 (535-860) = PDE5A1 (535-860) (Homo sapiens, UniProt O76074); test: In vitro enzymatic activity assay, PDE selectivity panel: PDE5A1; assay type: biochemical
Experimental: as §2

PDE4B2 = test system: PDE4B2; design: method as in PMID 22483586; conditions: cited from earlier work
PDE4D2 = test system: PDE4D2; design: method as in PMID 22483586; conditions: cited from earlier work
MC38 cells [7] = test: RNA sequencing of treated MC38 cells; assay type: cell-based, murine
Experimental: RNA integrity was assessed using the RNA Nano 6000 Assay Kit on the Bioanalyzer 2100 system (Agilent Technologies, CA, USA). Total RNA was used as input for RNA sample preparation. Briefly, mRNA was purified from total RNA using poly‐T oligo‐attached magnetic beads. Fragmentation was performed using divalent cations at elevated temperature in First Strand Synthesis Reaction Buffer (5X). First‐strand cDNA was synthesised using a random hexamer primer and M‐MuLV Reverse Transcriptase (RNase H‐). Second‐strand cDNA synthesis was then carried out using DNA Polymerase I and RNase H. The remaining overhangs were converted to blunt ends via exonuclease/polymerase activities. After adenylation of the 3′ ends of the DNA fragments, adaptors with a hairpin loop structure were ligated to prepare for hybridisation. To select cDNA fragments in the preferred size range of 370–420 bp, the library fragments were purified using the AMPure XP system (Beckman Coulter, Beverly, USA). PCR amplification was performed using Phusion High‐Fidelity DNA polymerase, universal PCR primers, and an index (X) primer. The PCR products were then purified again using the AMPure XP system, and the library quality was assessed on the Agilent Bioanalyzer 2100 system. […] After cluster generation, the library preparations were sequenced on the Illumina NovaSeq platform, generating 150 bp paired‐end reads.

MC38 cells [8] = test: Wound healing scratch migration assay; assay type: cell-based, murine; conditions: 24 h and 48 h
Experimental: For migration assays (wound healing assays), cells were seeded in 6‐well plates and grown until confluence. Cells were scraped in each well, the medium was replaced with medium with 2% FBS to block cell proliferation. After 24 h or 48 h, the photographs of each well were obtained.

[9] = mice, MC38-Luc intrasplenic, two weeks of treatment

PDE4, sequence (Q08499 388-715): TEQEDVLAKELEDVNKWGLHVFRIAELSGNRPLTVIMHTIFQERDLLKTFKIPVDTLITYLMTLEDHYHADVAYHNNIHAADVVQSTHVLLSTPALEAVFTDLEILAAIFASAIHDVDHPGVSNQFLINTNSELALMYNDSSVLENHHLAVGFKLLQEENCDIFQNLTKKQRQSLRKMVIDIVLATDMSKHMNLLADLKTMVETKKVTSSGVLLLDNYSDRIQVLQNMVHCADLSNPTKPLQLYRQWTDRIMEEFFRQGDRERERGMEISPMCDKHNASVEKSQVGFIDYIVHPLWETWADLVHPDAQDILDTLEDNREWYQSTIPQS
PDE1B (10-487), sequence (Q01064 10-487): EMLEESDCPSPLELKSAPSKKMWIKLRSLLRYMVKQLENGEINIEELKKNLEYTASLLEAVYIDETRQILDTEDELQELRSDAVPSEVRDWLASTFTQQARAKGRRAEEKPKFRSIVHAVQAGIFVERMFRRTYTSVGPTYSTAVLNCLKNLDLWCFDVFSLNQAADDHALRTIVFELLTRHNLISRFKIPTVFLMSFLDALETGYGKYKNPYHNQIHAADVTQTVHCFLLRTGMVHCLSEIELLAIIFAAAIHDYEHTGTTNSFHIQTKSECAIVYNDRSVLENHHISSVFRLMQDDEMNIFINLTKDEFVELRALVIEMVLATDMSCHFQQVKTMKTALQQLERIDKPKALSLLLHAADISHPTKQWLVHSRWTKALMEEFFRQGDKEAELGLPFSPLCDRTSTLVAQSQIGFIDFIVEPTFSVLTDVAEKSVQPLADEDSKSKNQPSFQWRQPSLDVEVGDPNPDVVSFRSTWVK
PDE3A (679-1087), sequence (Q14432 679-1087): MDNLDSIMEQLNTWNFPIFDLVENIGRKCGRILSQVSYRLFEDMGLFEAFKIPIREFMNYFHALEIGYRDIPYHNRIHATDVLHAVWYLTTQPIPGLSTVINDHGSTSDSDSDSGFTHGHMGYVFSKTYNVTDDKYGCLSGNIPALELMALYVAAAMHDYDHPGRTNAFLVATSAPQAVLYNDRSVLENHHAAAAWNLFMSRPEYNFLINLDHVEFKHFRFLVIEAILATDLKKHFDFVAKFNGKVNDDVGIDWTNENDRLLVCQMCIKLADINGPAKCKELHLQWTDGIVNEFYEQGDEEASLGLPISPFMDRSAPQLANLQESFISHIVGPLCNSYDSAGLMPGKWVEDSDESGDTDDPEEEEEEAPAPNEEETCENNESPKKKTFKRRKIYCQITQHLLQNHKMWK
PDE7A1 (130-482), sequence (Q13946 130-482): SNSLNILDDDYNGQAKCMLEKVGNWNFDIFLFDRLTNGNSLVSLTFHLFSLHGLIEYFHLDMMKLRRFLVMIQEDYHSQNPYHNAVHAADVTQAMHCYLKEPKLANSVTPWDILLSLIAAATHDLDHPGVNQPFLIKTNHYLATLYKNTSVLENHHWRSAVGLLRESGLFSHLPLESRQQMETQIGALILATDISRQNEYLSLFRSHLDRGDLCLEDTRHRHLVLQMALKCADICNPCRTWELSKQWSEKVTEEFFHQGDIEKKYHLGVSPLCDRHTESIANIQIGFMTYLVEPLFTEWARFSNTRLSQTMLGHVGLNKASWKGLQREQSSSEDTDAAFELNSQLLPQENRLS

Compound: COc1cc2c(cc1O)CC[C@@H]1[C@@H]2CC[C@]2(C)[C@@H](O)CC[C@@H]12 [2‐MEOE2]
mRNA and protein levels of CCN2 [1]: significant decrease

Compound: C=C[C@@]1(C)CC(=O)[C@]2(O)[C@@]3(C)[C@@H](O)CCC(C)(C)[C@@H]3[C@H](O)[C@H](OC(C)=O)[C@@]2(C)O1 [FSK, forskolin]
migration, transwell assay (MC38 cells [2]): quantitatively similar to those of roflumilast
levels of CCN2, p-AKT and p-ERK [1]: significantly inhibited

Compound: O=S(=O)(NCCSSCCNS(=O)(=O)c1cc(Cl)ccc1Cl)c1cc(Cl)ccc1Cl [KC7F2]
mRNA and protein levels of CCN2 [1]: significant decrease

inhibition at 1 µM (PDE4): 55.7%
inhibition at 0.1 µM (PDE4): 41.9%
Compound: COc1cccc(Nc2cc(-c3cc4ccccc4o3)ccc2C(N)=O)c1 [L1]

IC50 (PDE4): 0.181 ± 0.013 µM
inhibition at 1 µM (PDE4): 68.5%
inhibition at 0.1 µM (PDE4): 48.6%
Compound: COc1cccc(Nc2cc(-c3cc4ccc(O)cc4o3)ccc2C(N)=O)c1 [L2]

inhibition at 1 µM (PDE4): 24.1%
inhibition at 0.1 µM (PDE4): 17%
Compound: COc1cccc(Nc2cc(-c3cc4cc(OC)ccc4o3)ccc2C(N)=O)c1 [L3]

inhibition at 1 µM (PDE4): 59.5%
inhibition at 0.1 µM (PDE4): 28.9%
Compound: COc1cccc(Nc2cc(-c3cc4cccc(OC)c4o3)ccc2C(N)=O)c1 [L4]

inhibition at 1 µM (PDE4): 36.9%
inhibition at 0.1 µM (PDE4): 15.9%
Compound: COc1cccc(Nc2cc(-c3cc4ccc(Cl)cc4o3)ccc2C(N)=O)c1 [L5]

inhibition at 1 µM (PDE4): 55.5%
inhibition at 0.1 µM (PDE4): 30.3%
Compound: COc1cccc(Nc2cc(-c3cc4cc(F)ccc4o3)ccc2C(N)=O)c1 [L6]

IC50 (PDE4): 0.197 ± 0.0374 µM
inhibition at 1 µM (PDE4): 77.5%
inhibition at 0.1 µM (PDE4): 44.1%
Compound: NC(=O)c1ccc(-c2cc3ccc(O)cc3o2)cc1Nc1cccc(Cl)c1 [L7]

inhibition at 1 µM (PDE4): 61.6%
inhibition at 0.1 µM (PDE4): 30.6%
Compound: NC(=O)c1ccc(-c2cc3ccc(O)cc3o2)cc1Nc1cccc(F)c1 [L8]

inhibition at 1 µM (PDE4): 65.8%
inhibition at 0.1 µM (PDE4): 39.1%
Compound: NC(=O)c1ccc(-c2cc3ccc(O)cc3o2)cc1Nc1cc(F)cc(F)c1 [L9]

inhibition at 1 µM (PDE4): 37.4%
Compound: FC(F)Oc1ccc(-c2cc3ccccc3o2)cc1OCC1CC1 [L10]

Compound: Oc1ccc2cc(-c3ccc(OC(F)F)c(OCC4CC4)c3)oc2c1 [L11]
No. of animals with emesis/No. of test animals ([3]; 10 mg/kg po): 0/3
emetic activity ([3]; oral dose of 10 mg/kg): did not induce emetic effects
cell viability / growth (CCK8 assay) (MC38 cells [4]): significantly inhibit the growth
IC50 (MC38 cells [4]; Mus musculus, MC-38): ~20 µM
IC50 (PDE1B (10-487)): > 10 µM
IC50 (PDE7A1 (130-482)): 2.29 µM
IC50 (PDE3A (679-1087)): > 10 µM
bioluminescence of mice in the liver (MC38 liver metastases): significant decrease
liver metastases (liver images and bioluminescence images) (MC38 liver metastases; [9]): significantly inhibit tumour metastases
metastatic areas in the liver (H&E staining) (MC38 liver metastases; mice, after treatment): significantly suppressed liver metastases
food intake, weight, haematology indicators and serum test indicators ([5]; 30 mg/kg or 100 mg/kg intraperitoneal injection for 2 weeks): no abnormal changes
adverse effects on body weight or other signs of overt toxicity ([5]; daily doses of up to 100 mg/kg for 2 weeks): did not cause any adverse effects
safety: body weight and H&E of heart, lung and kidney [6]: safety of compound L11 was observed; also recorded: could not induce weight loss or any major organ damage
levels of CCN2, p-AKT and p-ERK [1]: significantly repressed
IC50 (PDE5A1 (535-860)): 3 µM

IC50 (PDE4): 0.91 µM
inhibition at 1 µM (PDE4): 73.3%
inhibition at 0.1 µM (PDE4): 13.2%
Compound: FC(F)Oc1ccc(-c2cc3ccccc3o2)cc1OC1CCCC1 [L12]

IC50 (PDE4): 0.145 ± 0.0023 µM
inhibition at 1 µM (PDE4): 92.2%
inhibition at 0.1 µM (PDE4): 42.7%
Compound: Oc1ccc2cc(-c3ccc(OC(F)F)c(OC4CCCC4)c3)oc2c1 [L13]

Compound: NC1(c2ccc(-c3nc4ccn5c(=O)[nH]nc5c4cc3-c3ccccc3)cc2)CCC1 [MK2206]
migration, transwell assay (MC38 cells [2]): significantly inhibit MC38 metastases

Compound: Oc1cc(O)cc(-c2cc3ccc(O)cc3o2)c1 [Moracin M]
IC50 (PDE4B2): 4.5 µM
IC50 (PDE4D2): 2.9 µM

Compound: COc1cccc(-c2cc(=O)c3ccccc3o2)c1N [PD98095]
migration, transwell assay (MC38 cells [2]): significantly inhibit MC38 metastases

Compound: O=C(Nc1c(Cl)cncc1Cl)c1ccc(OC(F)F)c(OCC2CC2)c1 [Roflumilast, roflumilast]
No. of animals with emesis/No. of test animals ([3]; 1.0 mg/kg po): 3/3
expression of eight cell adhesion pathway genes (CCN2, LAMB3, EGFL7, EPHA8, COL7A1, AMIGO2, COL6A3, CDH26) (MC38 cells [7]): relatively low expression
cell viability / growth (CCK8 assay) (MC38 cells [4]): less toxicity
migration, transwell assay (MC38 cells [2]; combined with siCCN2): could not inhibit tumour metastases
migration, transwell assay (MC38 cells [2]; combined with siHIF1A): Same result
bioluminescence of mice in the liver (MC38 liver metastases): significant decrease
liver metastases (liver images and bioluminescence images) (MC38 liver metastases; [9]): fewer metastatic lesions
metastasis sites, liver total flux (and liver weight), quantitative statistics (MC38 liver metastases; [9]): could inhibit liver metastasis
migration, scratch wound closure (MC38 cells [8]): significantly inhibited the migration
HIF-1α and CCN2 expression levels (western blot) ([1]; 24 h): inhibited
protein level of CCN2 (immunofluorescence) ([1]; 48 h): decreased significantly
